Like-named read-outs stand apart in the source and are kept apart here.
Tests used:
kidney tissues = experiment: H&E histology of rotenone-treated kidney tissue sections; assay type: in vivo; details: rat, single oral 2 mg/kg, 24 h
Protocol: (§1) Rats were sacrificed 24 h after drug administration, and the kidney and liver organs were immediately removed, flash-frozen with liquid nitrogen, and stored at −80°C in a freezer for long-term storage. The administration and harvesting of organs were conducted by the Pharmalytics Corporation, accredited by the Food and Drug Administration (FDA, Philippines) for bioavailability and bioequivalence research. The animal study was reviewed and approved by the Institutional Animal Care and Use Committee (IACUC) Esteleydes Animal Laboratory and Research Facility and by the Bureau of Animal Industry—Animal Health and Welfare Division in the Philippines.
Matrix was removed from the laser-ablated kidney sections using 95% EtOH for 20 s before rehydration with distilled water. The tissue-mounted glass slides were immersed in Harris hematoxylin solution (Sigma Aldrich, St. Louis, MO, United States) for 4 min and the excess was rinsed off with deionized water twice for 1 min. Hematoxylin differentiation of tissues was then performed using 0.5% acid alcohol for 10 s. The glass slides were rinsed using deionized water for 1 min followed by soaking in ammonia solution for 1 min and rinsing in deionized water twice for 1 min. Kidney sections were then counterstained using eosin Y solution (Sigma Aldrich, St. Louis, MO, United States) for 2 min. […]

[1] = MALDI quantitative MSI (on-tissue qMSI) of rotenone in kidney tissue sections after a single oral dose; assay type: in vivo; details: rat, single oral 2 mg/kg; for concentration at 24 h: kidney, po, 2 mg/kg
Protocol: as §1
Agarose-embedded kidney and liver organs were cut longitudinally at 5 µm thickness at −20°C using a cryostat (Leica CM 1950; Leica Biosystems, Germany), and thaw-mounted onto clean glass slides. The agarose-embedded kidney or liver was trimmed up to 500 µm to remove the agarose covering a portion of the organ. Subsequently, seven layers from the outer portion towards the middle were identified with a 100 µm distance between each layer. Representative cryosections were obtained from each identified layer of the untreated and drug-treated rat kidney. The agarose surrounding the kidney or liver cryosectioned tissue was manually removed before mounting onto a glass slide. Prior to matrix coating, the glass slides mounted with thin kidney cryosections were placed in a box and kept in a vacuum desiccator cabinet overnight ([Costa et al., 2013]; [Marques et al., 2014]; [Dalisay et al., 2015]; [Suarez et al., 2023]).
Matrix solution was applied to evenly coat the entire tissue surface using a HTX M5 Sprayer (HTX Technologies, LLC, Carrboro, NC, United States). The parameter settings were optimized to avoid metabolite delocalization and compromised spatial integrity. The kidney sections were sprayed with a matrix solution of 2,5-dihydroxybenzoic acid (DHB) (Acros Organics, New Jersey, United States) at a concentration of 40 mg/mL in MeOH/H2O (1:1 v/v). Matrix solution was homogeneously applied for 6 passes in a criss-cross (CC) pattern with a nozzle temperature of 80°C, 1 mm track spacing, 1,250 mm/min nozzle speed, and 10 psi nitrogen pressure.
This method utilized an untreated kidney tissue sample which was sectioned and mounted on a clean glass slide. An on-tissue calibration curve method for qMSI was followed ([Kibbe and Muddiman, 2024]). […] Linear regression analysis was applied and inspected to confirm linearity. The untreated tissue was spotted with calibrants, allowed to dry, and coated with matrix (DHB 40 mg/mL in MeOH:H2O, 1:1 v/v). MALDI MSI data were acquired in 100 μm pixel resolution using MALDI SYNAPT XS (Waters Corporation, Manchester, United Kingdom) in positive mode. The experiment was performed with three replicates per calibrant in three independent trials. In order to address variations that may occur during data acquisition for qMSI, the ion signals were normalized to the total ion current (TIC). The intensities obtained for each concentration were plotted and approximated using the least-squares method. The limits of detection (LOD) and quantification (LOQ) were calculated by averaging the calibration curves, using signal-to-noise ratios (S/N) of 3:1 for LOD and 10:1 for LOQ. The validity of these limits was confirmed by applying serially diluted rotenone onto the tissue. In cases where the blank response has a standard deviation (SD) of zero, the SD of the lowest non-zero concentration was utilized. The SD value was divided by the slope of the calibration curve and multiplied by 3.3. The LOD was calculated using the formula LOD=3.3 x SDlowest non−zero concentration/slope of the calibration curve
To calculate the LOD and LOQ values in kidney tissue (pg/ng), the values were divided by the renal tissue density (ng/µL). […]

C=C(C)[C@H]1Cc2c(ccc3c2O[C@@H]2COc4cc(OC)c(OC)cc4[C@@H]2C3=O)O1 [rotenone, Rotenone]
histological alterations in kidney tissue sections stained with H&E (kidney tissues): no discernible histological alterations were detected | concentration at 24 h ([1]; AVERAGE ± SD of 7 kidney tissue sections, read-out: Concentration): 6200 ± 3800 ng/mL | concentration at 24 h ([1]; AVERAGE ± SD of 7 kidney tissue sections, read-out: Relative concentration per tissue section): 5860 ng/g | concentration at 24 h ([1]; Kidney Tissue 1 (layer 1), read-out: Concentration): 3600 ng/mL | concentration at 24 h ([1]; Kidney Tissue 1 (layer 1), read-out: Relative concentration per tissue section): 1650 ng/g | concentration at 24 h ([1]; Kidney Tissue 2 (layer 2), read-out: Concentration): 2000 ng/mL | concentration at 24 h ([1]; Kidney Tissue 2 (layer 2), read-out: Relative concentration per tissue section): 1100 ng/g | concentration at 24 h ([1]; Kidney Tissue 3 (layer 3), read-out: Concentration): 2600 ng/mL | concentration at 24 h ([1]; Kidney Tissue 3 (layer 3), read-out: Relative concentration per tissue section): 1910 ng/g | concentration at 24 h ([1]; Kidney Tissue 4 (layer 4), read-out: Concentration): 7200 ng/mL | concentration at 24 h ([1]; Kidney Tissue 4 (layer 4), read-out: Relative concentration per tissue section): 5950 ng/g | concentration at 24 h ([1]; Kidney Tissue 5 (layer 5), read-out: Concentration): 7000 ng/mL | concentration at 24 h ([1]; Kidney Tissue 5 (layer 5), read-out: Relative concentration per tissue section): 6420 ng/g | concentration at 24 h ([1]; Kidney Tissue 6 (layer 6), read-out: Concentration): 8000 ng/mL | concentration at 24 h ([1]; Kidney Tissue 6 (layer 6), read-out: Relative concentration per tissue section): 9210 ng/g | concentration at 24 h ([1]; Kidney Tissue 7 (layer 7), read-out: Concentration): 12800 ng/mL | concentration at 24 h ([1]; Kidney Tissue 7 (layer 7), read-out: Relative concentration per tissue section): 14700 ng/g | Normalized Mass intensity by TIC ([1]; 24 h, AVERAGE ± SD of 7 kidney tissue sections): 0.0042 ± 0.0019 | Normalized Mass intensity by TIC ([1]; 24 h, Kidney Tissue 1 (layer 1)): 0.0030 | Normalized Mass intensity by TIC ([1]; 24 h, Kidney Tissue 2 (layer 2)): 0.0022 | Normalized Mass intensity by TIC ([1]; 24 h, Kidney Tissue 3 (layer 3)): 0.0025 | Normalized Mass intensity by TIC ([1]; 24 h, Kidney Tissue 4 (layer 4)): 0.0048 | Normalized Mass intensity by TIC ([1]; 24 h, Kidney Tissue 5 (layer 5)): 0.0047 | Normalized Mass intensity by TIC ([1]; 24 h, Kidney Tissue 6 (layer 6)): 0.0052 | Normalized Mass intensity by TIC ([1]; 24 h, Kidney Tissue 7 (layer 7)): 0.0076 | Detected amount of rotenone drug in picograms per nanogram of tissue mass ([1]; 24 h, range over seven kidney layers): 0.0011 to 0.0147 pg/ng
